The supplement of paper PMC11208160

Assays:
[1] = recombinant barcode read abundance after kanamycin selection (control-corrected) (log10(CPM+1)); higher = more efficient recombination; sequences stand for … in AGTGCAGAGAAAATCGGCCAGTTTTCTCTGCCTGCAGTCCGCATGCCGT…AGATTTATGCAGCGGACTGCCTTTCTCCCAAAGTGATAAACCGGACAGTATCATGGACCGGTTTTCCCGGTAATCCGTATTTGCAAGGTTGGTTTCACT; site = the 11-nt target
Procedure: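 Pooled E. coli target-specificity screen for the IS621 bridge recombinase. Each library plasmid pairs an 11-nt target (CT core) with a bridge RNA whose target-binding loop (9-nt LTG + 4-nt RTG) is reprogrammed; the rest of the 177-nt WT IS621 bridge RNA scaffold is fixed. The plasmid is co-electroporated with a WT donor plasmid; recombinase is induced with 0.1 mM IPTG and recombinants are selected on kanamycin. Recombinant barcodes are sequenced, converted to CPM, averaged over two biological replicates and corrected by the unselected control CPM. Molecule = full bridge RNA written as DNA: LTG = specificity nt 1-9, RTG = reverse complement of specificity nt 8-11, in the WT scaffold.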

[2] = recombinant UMI read abundance after kanamycin selection (control-corrected) (log10(CPM+1)); higher = more efficient recombination; extreme values may be limits of the assay; sequences stand for … in AGTGCAGAGAAAATCGGCCAGTTTTCTCTGCCTGCAGTCCGCATGCCGTGGGACCCCTTGGGTTCTAACCTGTTGCCTAGATTTATGCAGCGGACTGCCTTTCTCCCAAAGTGATAAACCGG…AGGTTGGTTTCACT; site = the 11-nt donor
Method in brief: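 Values are reported as log10(CPM+1), obtained by converting sequencing counts to CPM, averaging replicates and scaling by control-derived factors. The counts came from recombinant UMIs amplified by PCR across the donor–target junction. These UMIs came from a pooled Escherichia coli screen of donor and donor-binding-loop pairs for the IS621 bridge recombinase, plated with IPTG (0.07 mM) plus kanamycin or left unselected, in two replicates each.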
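Wherever recombinant UMI read abundance after kanamycin selection (control-corrected) is given: IS621 bridge recombinase in Escherichia coli cells against a fixed T5 target plasmid.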
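Wherever recombinant barcode read abundance after kanamycin selection (control-corrected) is given: IS621 recombinase and bridge RNA in Escherichia coli cells.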

Row | Sequence | recombinant barcode read abundance (log10) [1] | recombinant UMI read abundance (log10) [2]
1 | AAAACTACTTGGGTTCTAACCTGTTGCCA (site AAAACTACTTG) | 0.2 | 
2 | AAAACTACTTGGGTTCTAACCTGTTGCCA (site AATGCTACTTG) | 0.15 | 
3 | AAAAGCCCTTGGGTTCTAACCTGTTGCCT (site AAAAGCCCTAG) | 0.77 | 
4 | AAAAGCCCTTGGGTTCTAACCTGTTGCCT (site ACAAGCCCTAG) | 0.154 | 
5 | AAAAGCCCTTGGGTTCTAACCTGTTGCCT (site AGAAGCCCTAG) | 0.0771 | 
6 | AAAAGCCCTTGGGTTCTAACCTGTTGCCT (site ATAAGCCCTAG) | 0.357 | 
7 | AAACGCTCTTGGGTTCTAACCTGTTGCCT (site AAACGCTCTAG) | 1.75 | 
8 | AAACGCTCTTGGGTTCTAACCTGTTGCCT (site TAACGCTCTAG) | 0.446 | 
9 | AAACTAACTTGGGTTCTAACCTGTTGCCT (site AAACTAACTAG) | 1.31 | 
10 | AAACTAACTTGGGTTCTAACCTGTTGCCT (site ACACTAACTAG) | 0.167 | 
11 | AAACTAACTTGGGTTCTAACCTGTTGCCT (site AGACTAACTAG) | 0.0602 | 
12 | AAACTAACTTGGGTTCTAACCTGTTGCCT (site ATACTAACTAG) | 0.073 | 
13 | AAACTTACTTGGGTTCTAACCTGTTGCCT (site AAACTTACTAG) | 0.721 | 
14 | AAACTTACTTGGGTTCTAACCTGTTGCCT (site AGATTTACTAG) | 0.0102 | 
15 | AAAGCTCCTTGGGTTCTAACCTGTTGCTT (site AAAGCTACTAG) | 0.0734 | 
16 | AAAGCTCCTTGGGTTCTAACCTGTTGCTT (site AAAGCTCCTAA) | 0.318 | 
17 | AAAGGGACTTGGGTTCTAACCTGTTGCCT (site AAAGGGACTAG) | 2.08 | 
18 | AAAGGGACTTGGGTTCTAACCTGTTGCCT (site AAGGAGACTAG) | 0.191 | 
19 | AAATCTGCTTGGGTTCTAACCTGTTGCCT (site AAATCTGCTAG) | 0.122 | 
20 | AAATCTGCTTGGGTTCTAACCTGTTGCCT (site GGTGGGACTGT) | 0.229 | 
21 | AACAAGCCTTGGGTTCTAACCTGTTGCTG (site AACAAGCCTCA) | 0.896 | 
22 | AACAAGCCTTGGGTTCTAACCTGTTGCTG (site AACATGCCTAA) | 0.0487 | 
23 | AACACGACTTGGGTTCTAACCTGTTGCTC (site AACACGACTGA) | 0.171 | 
24 | AACACGACTTGGGTTCTAACCTGTTGCTC (site CCATATGCTAG) | 0.235 | 
25 | AACAGGCCTTGGGTTCTAACCTGTTGCCT (site AACAGGCCTAG) | 0.0525 | 

Row | Sequence | recombinant barcode read abundance (log10) [1] | recombinant UMI read abundance (log10) [2]
26 | AACAGGCCTTGGGTTCTAACCTGTTGCCT (site TGTGACACTTT) | 0 | 
27 | AACATACCTTGGGTTCTAACCTGTTGCCT (site AACATACCTAG) | 0.737 | 
28 | AACATACCTTGGGTTCTAACCTGTTGCCT (site ATCATTCCTAG) | 0.564 | 
29 | AACATCACTTGGGTTCTAACCTGTTGCCG (site AACATCACTCG) | 1.08 | 
30 | AACATCACTTGGGTTCTAACCTGTTGCCG (site AGCATCACTAG) | 0 | 
31 | AACCACTCTTGGGTTCTAACCTGTTGCCT (site AACCACTCTAG) | 2.42 | 
32 | AACCACTCTTGGGTTCTAACCTGTTGCCT (site CACCACTCTAG) | 0.942 | 
33 | AACCACTCTTGGGTTCTAACCTGTTGCCT (site GACCACTCTAG) | 0.266 | 
34 | AACCACTCTTGGGTTCTAACCTGTTGCCT (site TACCACTCTAG) | 1.46 | 
35 | AACCAGTCTTGGGTTCTAACCTGTTGCCG (site AACCAGTCTCG) | 0.898 | 
36 | AACCAGTCTTGGGTTCTAACCTGTTGCCG (site ACCCAGTCTTG) | 0.033 | 
37 | AACCCACCTTGGGTTCTAACCTGTTGCCT (site AACCCACCTAG) | 1.97 | 
38 | AACCCACCTTGGGTTCTAACCTGTTGCCT (site CACCCACCTAG) | 0.56 | 
39 | AACCCACCTTGGGTTCTAACCTGTTGCCT (site GACCCACCTAG) | 0.0506 | 
40 | AACCCACCTTGGGTTCTAACCTGTTGCCT (site TACCCACCTAG) | 0.997 | 
41 | AACGCCACTTGGGTTCTAACCTGTTGCCT (site AACGCCACTAG) | 0.0293 | 
42 | AACGCCACTTGGGTTCTAACCTGTTGCCT (site GACGCCACTAG) | 0.0328 | 
43 | AACGGAGCTTGGGTTCTAACCTGTTGCGG (site AACGGAGCTCC) | 1.78 | 
44 | AACGGAGCTTGGGTTCTAACCTGTTGCGG (site TGCGGAGCTCC) | 0.699 | 
45 | AACGTACCTTGGGTTCTAACCTGTTGCAG (site AACGTACCTCT) | 1.28 | 
46 | AACGTACCTTGGGTTCTAACCTGTTGCAG (site GTGAAGACTAA) | 0.0773 | 
47 | AACTAATCTTGGGTTCTAACCTGTTGCCT (site AACTAATCTAG) | 0.327 | 
48 | AACTAATCTTGGGTTCTAACCTGTTGCCT (site AACTCATCTAG) | 0.0864 | 
49 | AACTAATCTTGGGTTCTAACCTGTTGCCT (site AACTGATCTAG) | 0.0845 | 
50 | AACTAATCTTGGGTTCTAACCTGTTGCCT (site AACTTATCTAG) | 0.0117 | 

Row | Sequence | recombinant barcode read abundance (log10) [1] | recombinant UMI read abundance (log10) [2]
51 | AACTAGTCTTGGGTTCTAACCTGTTGCTA (site AACCAGTCTTC) | 0.0577 | 
52 | AACTAGTCTTGGGTTCTAACCTGTTGCTA (site AACTAGTCTTA) | 1.27 | 
53 | AACTATTCTTGGGTTCTAACCTGTTGCCT (site AACTATTCTAG) | 0.374 | 
54 | AACTATTCTTGGGTTCTAACCTGTTGCCT (site ATGTATTCTAG) | 0.114 | 
55 | AACTCATCTTGGGTTCTAACCTGTTGCCT (site AACTAATCTAG) | 0.0366 | 
56 | AACTCATCTTGGGTTCTAACCTGTTGCCT (site AACTCATCTAG) | 0.378 | 
57 | AACTCATCTTGGGTTCTAACCTGTTGCCT (site AACTGATCTAG) | 0.149 | 
58 | AACTCATCTTGGGTTCTAACCTGTTGCCT (site AACTTATCTAG) | 0.0223 | 
59 | AACTTATCTTGGGTTCTAACCTGTTGCCT (site AACTAATCTAG) | 1.02 | 
60 | AACTTATCTTGGGTTCTAACCTGTTGCCT (site AACTCATCTAG) | 0.0843 | 
61 | AACTTATCTTGGGTTCTAACCTGTTGCCT (site AACTGATCTAG) | 0.0896 | 
62 | AACTTATCTTGGGTTCTAACCTGTTGCCT (site AACTTATCTAG) | 0.812 | 
63 | AACTTCACTTGGGTTCTAACCTGTTGCCT (site AACTTCACTAG) | 1.12 | 
64 | AACTTCACTTGGGTTCTAACCTGTTGCCT (site AACTTCCCTAG) | 0.013 | 
65 | TTTGCCGCATGGACCGGTTTTCCCGGTAATCCGTATTTGCT (site TTTGCAGCTAG) |  | 0.0102
66 | TTTGCCGCATGGACCGGTTTTCCCGGTAATCCGTATTTGCT (site TTTGCCGCTAG) |  | 0.548
67 | TTTGCCGCATGGACCGGTTTTCCCGGTAATCCGTATTTGCT (site TTTGCGGCTAG) |  | 0.00684
68 | TTTGCCGCATGGACCGGTTTTCCCGGTAATCCGTATTTGCT (site TTTGCTGCTAG) |  | 0
69 | TTTGGCGCATGGACCGGTTTTCCCGGTAATCCGTATTTGAG (site TTTGGCGCTCT) |  | 0.115
70 | TTTGGGGCATGGACCGGTTTTCCCGGTAATCCGTATTTGAC (site TTTGGGGCTGT) |  | 1.57
71 | TTTGTTACATGGACCGGTTTTCCCGGTAATCCGTATTTGCC (site TTTGTTACTGG) |  | 0.44
72 | TTTTTGGCATGGACCGGTTTTCCCGGTAATCCGTATTTGTG (site TATTTGGCTCA) |  | 0.0105
73 | TTTTTGGCATGGACCGGTTTTCCCGGTAATCCGTATTTGTG (site TCTTTGGCTCA) |  | 0.0102
74 | TTTTTGGCATGGACCGGTTTTCCCGGTAATCCGTATTTGTG (site TGTTTGGCTCA) |  | 0.0296
75 | TTTTTGGCATGGACCGGTTTTCCCGGTAATCCGTATTTGTG (site TTTTTGGCTCA) |  | 0.00438
